These results are taken from patent publication US12503446B2, “Bromodomain inhibitors” (FORSCHUNGSZENTRUM JÜLICH GMBH, priority 2019, dated 2025).

Each structure is given as a SMILES string. “Also recorded” adds a separate entry of the source.

The test system of experiment [1] is erythroleukaemia cell line HEL (JAK2V617F-positive). As to the kind of experiment: MTT assay, metabolic activity of HEL cells. The format is cell-based. Conditions: 72 h; for effect on metabolic activity of HEL cells (in words): concentrations up to 20 μM. The procedure:
(§1) All studies with the HEL, Molm-14 and K562 cell lines mentioned (sourced from DSMZ: ACC-11, ACC-10 and ACC-777) were conducted under germ-free conditions under a sterile hood. Incubation was effected at 37° C. in an incubator at a CO2 saturation of 5%. For the passage of the suspension cells, the cells were transferred in a Falcon prefilled with PBS (phosphate buffered saline) and centrifuged at 1200 rpm for 5 min. All three cell lines were cultured in RPMI-1640 medium (Gibco, Thermo Fischer Scientific, Darmstadt, Germany) with 10% FCS and 1% penicillin streptomycin.
(§2) The viability and metabolic activity of the cells were measured by the MTT assay. Yellow, water-soluble MTT (3-([…])-2,5-diphenyltetrazolium bromide) is a tetrazolium salt which is reduced to dark blue formazan in living cells. Insoluble formazan is released by addition of isopropanol-HCl, and its intensity can be determined by photometry at a wavelength of 550 nm. Thus, the proportion of living cells is measured by comparison with a particular control sample. The cells were counted and washed with PBS, and 30 000 cells per well were sown in triplicates in a 96-well plate. For the inhibitor treatment, the stated final concentrations were used. For this purpose, 10 µl of the appropriate inhibitor dilution was introduced into the 96-well plates, and then 90 μl of cell suspension was pipetted in. The plates were incubated in an incubator for 72 h (37° C., 5% CO2). After the incubation, 10 μl of MTT solution (5 mg/ml) was applied to the wells with a multichannel pipette and thoroughly resuspended. This was followed by incubation for 4 h in the dark at room temperature. Subsequently, the cells were resuspended in 100 μl of isopropanol-HCl and lysed, and absorption at a wavelength of 550 nm was measured by photometry with a plate reader (Kayto, RT-2100C).
(§3) The erythroleukaemia cell line HEL (JAK2V617F-positive), the AML cell line Molm-14 and the chronic myeloid leukaemia (CML) cell line K562 (BCR-ABL-positive) were used for cell experiments.
(§4) Compounds MF1-R, MF1-S, JHS1-R and JHS1-S were dissolved in DMSO, and each was used in concentrations of 0.1 μM, 1 μM, 10 μM and 20 μM. Correspondingly, DMSO was included in each case as a control treatment, and the metabolic activity thereof was set to 100%. The HEL, Molm-14 and K562 cell lines were treated with the respective compounds in the different concentrations and, after 72 h in culture, the metabolic activity, which gives information about the growth of the cells, was determined by means of MTT [3-(4,5-dimethylthiazol-2-yl)-2,5-diphenyltetrazolium bromide] assay.

The next experiment relates to AML cell line Molm-14. Kind of experiment: MTT assay, metabolic activity of Molm-14 cells. The format is cell-based. The conditions noted are these: 72 h; for effect on metabolic activity of Molm-14 cells (in words): concentrations up to 20 μM. The method, then: as §1, §2, §3, §4
For orientation: Formazan colour is commonly taken as a measure of viable cells.

The subject of a further experiment is BRD2. As to the kind of experiment: Thermal shift assay (BromoMELT assay), BRD2. It is filed as binding. Conditions: 10 μM, duplicates, versus DMSO control. The method, then:
(§5) The experiment was conducted in duplicates at a concentration of 10 μM.

In experiment [2] the test system is proteins from the BET family. Kind of experiment: Thermal shift assay (BromoMELT assay), BET family. It is filed as binding. Conditions: 10 μM, duplicates, versus DMSO control; apart from BRDT-2. The procedure:
as §5

For experiment [3], the system named is PBMC or CD34+ cells from healthy donors. As to the kind of experiment: CFU assay, healthy controls. The format is cell-based, human. The method, then:
With the aid of the CFU assay, it is possible to determine the colony-forming capacity of individual cells in a semisolid methylcellulose medium (MethoCult H4434, StemCell Technologies, Cologne, Germany). The number of colonies was determined after 7-11 days.
CD34+ cells (G-CSF mobilized from stem cell donors) from healthy donors: 2×10^4 cells/ml; PBMCs from the healthy subjects: 4×10^5 cells/ml.
For this purpose, mononuclear cells (PBMC: mononuclear cells from peripheral blood) or CD34-positive stem cells (CD34+ cells) were isolated from the blood of four healthy controls and three AML or MPN patients and introduced into semisolid medium, to each of which 1 μM or 5 μM of MFS-2 or PFI-1 have been added. Individual cells in the CFU assay form cell colonies in culture after 12 days, unless the formation thereof is prevented by inhibitors.

The subject of experiment [4] is haematopoietic cell lines, erythroleukaemia and AML cell lines. As to the kind of experiment: Inhibitory activity in haematopoietic cell lines (summary statements). The format is cell-based. The conditions noted are these: for activity relative to PFI-1 in haematopoietic cell lines: racemic mixtures of MF1, MF2, achiral MF3. The procedure:
as §1, §2

On to `CN1Cc2cc(N=[S@](C)(=Nc3ccccc3)c3ccccc3)ccc2NC1=O` [JHS1-S, (S)—N-(3-methyl-2-oxo-1,2,3,4-tetrahydroquinazolin-6-yl)-N-phenyl-S-methyl-S-phenylsulfonediimide], for which the “effect on metabolic activity of HEL cells (in words)” value (“effect … of HEL cells (in words)” below) in experiment [1] is “comparable effect on the metabolic activity”. In the experiment with AML cell line Molm-14, the “effect on metabolic activity of Molm-14 cells (in words)” value (shortened to “effect … of Molm-14 cells (in words)”) is recorded as “comparable effect on the metabolic activity”.

On to `COc1ccccc1S(=O)(=O)Nc1ccc2c(c1)CN(C)C(=O)N2` [PFI-1, reference compound], for which the “binding of BRD2 (ΔTm, in words)” value in the experiment on BRD2 was “stronger binding of BRD2”. Moreover, in experiment [2], the “binding of BET family proteins (ΔTm, in words)” value is given as “specifically bind proteins of the BET family”. In addition, in experiment [1] (1 μM, DMSO control set to 100%), the “metabolic activity of HEL cells” value is given as 72.95%±12.7. For the same compound, the “metabolic activity of Molm-14 cells” value in the experiment with AML cell line Molm-14 (1 μM, DMSO control set to 100%) is recorded as 80.43%±1.324. Further, in experiment [3] (1 μM), the “colony count, healthy CD34+ controls 3 and 4” value is “reduced the colony count of the controls to a lesser degree”. In addition, in experiment [3] (5 μM), the “colony count, healthy controls 1 (PBMC) and 2 (CD34+ cells)” value was “likewise reduced the amount of colonies”.

In the case of `CN1Cc2cc(N=S(C)(=Nc3ccccc3)c3ccccc3)ccc2NC1=O` (racemic) [JHS1, rac-N-(3-methyl-2-oxo-1,2,3,4-tetrahydroquinazolin-6-yl)-N-phenyl-S-methyl-S-phenylsulfonediimide], the “effect … of HEL cells (in words)” value in experiment [1] was “reduced the metabolic activity of HEL and Molm-14 cells at concentrations of 10 and 20 μM; also recorded: achieved inhibition of the metabolic activity of HEL and Molm-14 cells at concentrations of 10 and 20 μM”. The “effect … of Molm-14 cells (in words)” value in the experiment with AML cell line Molm-14 was “reduced the metabolic activity of HEL and Molm-14 cells at concentrations of 10 and 20 μM; also recorded: achieved inhibition of the metabolic activity of HEL and Molm-14 cells at concentrations of 10 and 20 μM”.

As to `CN1Cc2cc(N=S(C)(=N)c3ccccc3)ccc2NC1=O` (racemic) [JHS2, rac-N-(3-methyl-2-oxo-1,2,3,4-tetrahydroquinazolin-6-yl)-N′—H—S-methyl-S-phenylsulfonediimide], the “effect … of HEL cells (in words)” value in experiment [1] is “inactive”. Besides, in the experiment on AML cell line Molm-14, the “effect … of Molm-14 cells (in words)” value was “inactive”. Besides, the “inhibitory activity in haematopoietic / leukaemia cell lines (in words)” value in experiment [4] is “minor inhibitory activity”.

For the compound `CN1Cc2cc(N=[S@](C)(=O)c3ccccc3)ccc2NC1=O` [MF2-R, (R)—N-(3-methyl-2-oxo-1,2,3,4-tetrahydroquinazolin-6-yl)-S-Methyl-S-Phenylsulfoximine], the “effect … of HEL cells (in words)” value in experiment [1] is “lost inhibitory activity compared to MF2”. In addition, in the experiment with AML cell line Molm-14, the “effect … of Molm-14 cells (in words)” value was “lost inhibitory activity compared to MF2”. Moreover, in experiment [4], the “inhibitory activity in haematopoietic / leukaemia cell lines (in words)” value is “showed inhibition of the cell proliferation of leukaemia cell lines”.

For `COc1ccccc1[S@](C)(=O)=Nc1ccc2c(c1)CN(C)C(=O)N2` [MF1-S, (S)—N-(3-methyl-2-oxo-1,2,3,4-tetrahydroquinazolin-6-yl)-S-(2-methoxyphenyl)-S-methylsulfoximine], the “effect … of HEL cells (in words)” value in experiment [1] is “comparable effect on the metabolic activity of HEL and Molm-14 cells to PFI-1”. The “effect … of Molm-14 cells (in words)” value with AML cell line Molm-14 was “comparable effect on the metabolic activity of HEL and Molm-14 cells to PFI-1”.

In the case of `COc1ccccc1[S@@](C)(=O)=Nc1ccc2c(c1)CN(C)C(=O)N2` [MF1-R, (R)—N-(3-methyl-2-oxo-1,2,3,4-tetrahydroquinazolin-6-yl)-S-(2-methoxyphenyl)-S-methylsulfoximine], the “effect … of HEL cells (in words)” value in experiment [1] was “virtually inactive”. Also, in the experiment on AML cell line Molm-14, the “effect … of Molm-14 cells (in words)” value is “virtually inactive”. The “inhibitory activity in haematopoietic / leukaemia cell lines (in words)” value in experiment [4] is reported as “minor inhibitory effect”.

Regarding `COc1ccccc1S(C)(=O)=Nc1ccc2c(c1)CN(C)C(=O)N2` (racemic) [MF1, rac-N-(3-methyl-2-oxo-1,2,3,4-tetrahydroquinazolin-6-yl)-S-(2-methoxyphenyl)-S-methylsulfoximine], in experiment [4], the “inhibitory activity in haematopoietic / leukaemia cell lines (in words)” value is “marked inhibitory activity; also recorded: showed inhibitory activity” and the “activity relative to PFI-1 in haematopoietic cell lines” value was “at a comparable level to PFI-1”.

As to `CN=S(C)(=Nc1ccc2c(c1)CN(C)C(=O)N2)c1ccccc1` (racemic) [JHS3, rac-N-(3-methyl-2-oxo-1,2,3,4-tetrahydroquinazolin-6-yl)-N-methyl-S-methyl-S-phenylsulfonediimide], the “effect … of HEL cells (in words)” value in experiment [1] was “inactive”. Besides, in the experiment on AML cell line Molm-14, the “effect … of Molm-14 cells (in words)” value was “inactive”. Moreover, the “inhibitory activity in haematopoietic / leukaemia cell lines (in words)” value in experiment [4] is recorded as “minor inhibitory activity”.

In the case of `CN1Cc2cc(N=S(=O)(c3ccccc3)c3ccccc3)ccc2NC1=O` [MF3, N-(3-methyl-2-oxo-1,2,3,4-tetrahydroquinazolin-6-yl)-S,S-diphenylsulfoximine], in experiment [4], the “inhibitory activity in haematopoietic / leukaemia cell lines (in words)” value is “marked inhibitory activity” and the “activity relative to PFI-1 in haematopoietic cell lines” value is on record as “at a comparable level to PFI-1”.

Consider `CN1Cc2cc(N=S(C)(=O)c3ccccc3)ccc2NC1=O` (racemic) [MF2, rac-N-(3-methyl-2-oxo-1,2,3,4-tetrahydroquinazolin-6-yl)-S-methyl-S-phenylsulfoximine], for which the “effect … of HEL cells (in words)” value in experiment [1] was “reduced the metabolic activity of HEL and Molm-14 cells at concentrations of 10 and 20 μM”. For the same compound, the “effect … of Molm-14 cells (in words)” value with AML cell line Molm-14 was “reduced the metabolic activity of HEL and Molm-14 cells at concentrations of 10 and 20 μM”. Moreover, in experiment [4], the “inhibitory activity in haematopoietic / leukaemia cell lines (in words)” value is listed as “marked inhibitory activity” and the “activity relative to PFI-1 in haematopoietic cell lines” value is “at a comparable level to PFI-1”.

On to `CN1Cc2cc(N=[S@@](C)(=Nc3ccccc3)c3ccccc3)ccc2NC1=O` [JHS1-R, (R)—N-(3-methyl-2-oxo-1,2,3,4-tetrahydroquinazolin-6-yl)-N′-phenyl-S-methyl-S-phenylsulfonediimide], for which the “inhibitory activity in haematopoietic / leukaemia cell lines (in words)” value in experiment [4] was “almost the same level of inhibitory action”.
